{
  "source": "patent US20260224524A1",
  "about": "“A PHARMACEUTICAL COMPOSITION TARGETING MUTANT P53 AND HER2” (DR DOZO LABORATORIES, priority 2023, published 2026)",
  "type_in_all_cases": "cell-based",
  "key": {"[1]": {"test_system": "Human Pancreatic Cancer Cell Line Mia-Pa-Ca-2", "experiment": "Growth inhibition (% control growth, LC50, TGI, GI50) Mia-Pa-Ca-2", "details": "Mia-Pa-Ca-2", "method": "The therapeutic effect of SA1 (peak 5) and SA2 (peak 4) is evaluated against human pancreatic cancer cell line Mia-Pa-Ca-2 by calculating the percentage growth inhibition, drug concentration of test compound needed to inhibit cell growth by 50% (GI50) values.\nThe therapeutic effect of SACC is evaluated against human […] cancer cell line Mia-Pa-Ca-2 by calculating the percentage growth inhibition, drug concentration of test compound needed to inhibit cell growth by 50% (GI50) values."}, "[2]": {"test_system": "Human Breast Cancer Cell Line MDA-MB-231", "experiment": "Growth inhibition (% control growth, LC50, TGI, GI50) MDA-MB-231", "details": "Molar drug concentrations calculated from graph"}, "[3]": {"test_system": "Human Lung Cancer Cell Line A-549", "experiment": "Growth inhibition (% control growth, LC50, TGI, GI50) A-549", "details": "A-549", "method": "The therapeutic effect of SA1 (peak 5) and SA2 (peak 4) is evaluated against human lung cancer cell line A-549 by calculating the percentage growth inhibition, drug concentration of test compound needed to inhibit cell growth by 50% (GI50) values.\nThe therapeutic effect of SACC is evaluated against human lung cancer cell line A-549 by calculating the percentage growth inhibition, drug concentration of test compound needed to inhibit cell growth by 50% (GI50) values."}, "[4]": {"test_system": "Human Breast Cancer Cell Line MDA-MB-231", "experiment": "Growth inhibition (% control growth, LC50, TGI, GI50) MDA-MB-231", "method": "The therapeutic effect of […] (peak 5) and SA2 (peak 4) is evaluated against human […] cancer cell line MDA-MB-231 by calculating the percentage growth inhibition, drug concentration of test compound needed to inhibit cell growth by 50% (GI50) values.\nThe therapeutic effect of SACC is evaluated against human […] cancer cell lines MDA-MB-231 by calculating the percentage growth inhibition, drug concentration of test compound needed to inhibit cell growth by 50% (GI50) values."}},
  "data": [
    {"smiles": "Cc1cc(=O)cco1", "note": "(single isomer, unassigned) [SA1 (peak 5), 2-methyl-4H-pyran-4-one]", "values": [
      {"measurement": "GI50", "setting": "[1]; Homo sapiens, MIA PaCa-2, Molar drug concentrations calculated from graph", "value": 0.00108, "unit": "µg/mL"},
      {"measurement": "% Control Growth", "setting": "[1]; 10^−4M, Average Values", "value": 49.2, "unit": "%"},
      {"measurement": "% Control Growth", "setting": "[1]; 10^−4M, Experiment 1", "value": 30.0, "unit": "%"},
      {"measurement": "% Control Growth", "setting": "[1]; 10^−4M, Experiment 2", "value": 63.5, "unit": "%"},
      {"measurement": "% Control Growth", "setting": "[1]; 10^−4M, Experiment 3", "value": 54.2, "unit": "%"},
      {"measurement": "% Control Growth", "setting": "[1]; 10^−5M, Average Values", "value": 108.5, "unit": "%"},
      {"measurement": "% Control Growth", "setting": "[1]; 10^−5M, Experiment 1", "value": 97.0, "unit": "%"},
      {"measurement": "% Control Growth", "setting": "[1]; 10^−5M, Experiment 2", "value": 112.7, "unit": "%"},
      {"measurement": "% Control Growth", "setting": "[1]; 10^−5M, Experiment 3", "value": 115.9, "unit": "%"},
      {"measurement": "% Control Growth", "setting": "[1]; 10^−6M, Average Values", "value": 113.4, "unit": "%"},
      {"measurement": "% Control Growth", "setting": "[1]; 10^−6M, Experiment 1", "value": 111.0, "unit": "%"},
      {"measurement": "% Control Growth", "setting": "[1]; 10^−6M, Experiment 2", "value": 116.4, "unit": "%"},
      {"measurement": "% Control Growth", "setting": "[1]; 10^−6M, Experiment 3", "value": 112.6, "unit": "%"},
      {"measurement": "% Control Growth", "setting": "[1]; 10^−7M, Average Values", "value": 105.7, "unit": "%"},
      {"measurement": "% Control Growth", "setting": "[1]; 10^−7M, Experiment 1", "value": 108.1, "unit": "%"},
      {"measurement": "% Control Growth", "setting": "[1]; 10^−7M, Experiment 2", "value": 95.5, "unit": "%"},
      {"measurement": "% Control Growth", "setting": "[1]; 10^−7M, Experiment 3", "value": 113.5, "unit": "%"},
      {"measurement": "TGI", "setting": "[1]; Molar drug concentrations calculated from graph", "value": 0.7992, "unit": "µg/mL"},
      {"measurement": "TGI", "setting": "[2]", "value": 4.03, "unit": "µg/mL"},
      {"measurement": "% Control Growth", "setting": "[3]; 10^−4M, Average Values", "value": 65.2, "unit": "%"},
      {"measurement": "% Control Growth", "setting": "[3]; 10^−4M, Experiment 1", "value": 64.0, "unit": "%"},
      {"measurement": "% Control Growth", "setting": "[3]; 10^−4M, Experiment 2", "value": 65.1, "unit": "%"},
      {"measurement": "% Control Growth", "setting": "[3]; 10^−4M, Experiment 3", "value": 66.6, "unit": "%"},
      {"measurement": "% Control Growth", "setting": "[3]; 10^−5M, Average Values", "value": 81.9, "unit": "%"},
      {"measurement": "% Control Growth", "setting": "[3]; 10^−5M, Experiment 1", "value": 86.4, "unit": "%"},
      {"measurement": "% Control Growth", "setting": "[3]; 10^−5M, Experiment 2", "value": 78.3, "unit": "%"},
      {"measurement": "% Control Growth", "setting": "[3]; 10^−5M, Experiment 3", "value": 81.1, "unit": "%"},
      {"measurement": "% Control Growth", "setting": "[3]; 10^−6M, Average Values", "value": 79.1, "unit": "%"},
      {"measurement": "% Control Growth", "setting": "[3]; 10^−6M, Experiment 1", "value": 83.6, "unit": "%"},
      {"measurement": "% Control Growth", "setting": "[3]; 10^−6M, Experiment 2", "value": 77.7, "unit": "%"},
      {"measurement": "% Control Growth", "setting": "[3]; 10^−6M, Experiment 3", "value": 75.9, "unit": "%"},
      {"measurement": "% Control Growth", "setting": "[3]; 10^−7M, Average Values", "value": 79.7, "unit": "%"},
      {"measurement": "% Control Growth", "setting": "[3]; 10^−7M, Experiment 1", "value": 80.8, "unit": "%"},
      {"measurement": "% Control Growth", "setting": "[3]; 10^−7M, Experiment 2", "value": 80.6, "unit": "%"},
      {"measurement": "% Control Growth", "setting": "[3]; 10^−7M, Experiment 3", "value": 77.6, "unit": "%"},
      {"measurement": "% Control Growth", "setting": "[4]; 10^−4M, Average Values", "value": 35.0, "unit": "%"},
      {"measurement": "% Control Growth", "setting": "[4]; 10^−4M, Experiment 1", "value": 43.7, "unit": "%"},
      {"measurement": "% Control Growth", "setting": "[4]; 10^−4M, Experiment 2", "value": 27.1, "unit": "%"},
      {"measurement": "% Control Growth", "setting": "[4]; 10^−4M, Experiment 3", "value": 34.3, "unit": "%"},
      {"measurement": "% Control Growth", "setting": "[4]; 10^−5M, Average Values", "value": 58.6, "unit": "%"},
      {"measurement": "% Control Growth", "setting": "[4]; 10^−5M, Experiment 1", "value": 75.2, "unit": "%"},
      {"measurement": "% Control Growth", "setting": "[4]; 10^−5M, Experiment 2", "value": 44.0, "unit": "%"},
      {"measurement": "% Control Growth", "setting": "[4]; 10^−5M, Experiment 3", "value": 56.4, "unit": "%"},
      {"measurement": "% Control Growth", "setting": "[4]; 10^−6M, Average Values", "value": 75.4, "unit": "%"},
      {"measurement": "% Control Growth", "setting": "[4]; 10^−6M, Experiment 1", "value": 90.3, "unit": "%"},
      {"measurement": "% Control Growth", "setting": "[4]; 10^−6M, Experiment 2", "value": 69.9, "unit": "%"},
      {"measurement": "% Control Growth", "setting": "[4]; 10^−6M, Experiment 3", "value": 66.1, "unit": "%"},
      {"measurement": "% Control Growth", "setting": "[4]; 10^−7M, Average Values", "value": 60.8, "unit": "%"},
      {"measurement": "% Control Growth", "setting": "[4]; 10^−7M, Experiment 1", "value": 75.4, "unit": "%"},
      {"measurement": "% Control Growth", "setting": "[4]; 10^−7M, Experiment 2", "value": 50.9, "unit": "%"},
      {"measurement": "% Control Growth", "setting": "[4]; 10^−7M, Experiment 3", "value": 56.0, "unit": "%"}
    ]}
  ]
}
